Where two headings read alike, the source gives them in different places.
Assays:
Format in all cases: in vivo
[1] = test system: redroot pigweed; assay: Upland foliar application test by mixed formulations, concentration gradient (Test 8)
Method: (§1) Resin-made 1/10,000-are pots were filled with the soil of an upland field. Redroot pigweed and johnsongrass were separately seeded and were allowed to germinate in a green house. When each plant grew to the stage of 2-3 leaves, emulsions formulated with concentration gradient from predetermined amounts of two test compounds of different kinds in a similar manner to the method described in Formulation Example 16 was diluted with water to a predetermined dilution rate and then sprayed at an application rate equal to 5 l per are onto the foliage of each plant by means of a pressure-operated ULV (ultra low volume) sprayer. Influence to the weeds were observed on the 40th day after the spray of the herbicides. The results are shown in Table 9, In the table, Ea have the same meanings as in Test 7, and Ea>Ec indicates the existence of synergistic action while Ea<Ec indicates the existence of antagonistic action.

[2] = test system: johnsongrass; assay: as above
Method: as §1

[3] = test system: redroot pigweed; assay: Upland foliar application test by mixed formulations (Test 7); conditions: Amaranthus retroflexus, 720 h, read-out: Herbicidal effects (%) Redrood pigweed Ea
Method: (§2) Resin-made 1/10,000-are pots were filled with the soil of an upland field. Redroot pigweed, morningglories, johnsongrass, barnyardgrass and green foxtail were separately seeded and were allowed to germinate in a green house. When each plant grew to the stage of 2-3 leaves, an emulsion formulated from predetermined amounts of two test compounds of different kinds in a similar manner to the method described in Formulation Example 16 was diluted with water to a predetermined dilution rate and then sprayed at an application rate equal to 5 l per are onto the foliage of each plant by means of a pressure-operated ULV (ultra low volume) sprayer. Influence to the weeds were observed on the 30th day after the spray of the herbicides. In the table, each Ea means an acutally measured value of herbicidal activities when two kinds of herbicides were mixed. Each Ec is an expected value for herbicidal activities, calculated in accordance with the below-described calculation formula proposed by Colby et al. [Colby, S. R., Weed 15, 20-22 (1967)]. Ea>Ec indicates the existence of synergistic action while […] action. [formula] Ec: Growth inhibition rate (%) expected when Ingredient I and Ingredient II are mixed.
(§3) Ex: Growth inhibition rate (%) when treated with Ingredient I alone.
(§4) Ey: Growth inhibition rate (%) when treated with Ingredient II alone.

[4] = test system: johnsongrass; assay: as above; conditions: Sorghum halepense, 720 h; for pest or weed control at 1000 g/ha: read-out: Herbicidal effects (%) Johnsongrass Ea, applied alone, 1 kg/ha, foliar, 30th day; for pest or weed control at 300 g/ha: read-out: Herbicidal effects (%) Johnsongrass Ea, applied alone, 0.3 kg/ha, foliar, 30th day
Method: as §2, §3, §4

[5] = test system: green foxtail; assay: as above; conditions: Setaria viridis, 720 h, read-out: Herbicidal effects (%) Green foxtail Ea
Method: as §2, §3, §4

[6] = test system: morningglories; assay: as above; conditions: Ipomoea, 720 h, read-out: Herbicidal effects (%) Morningglory Ea
Method: as §2, §3, §4

[7] = test system: barnyardgrass; assay: as above; conditions: Echinochloa crus-galli, 720 h, read-out: Herbicidal effects (%) Barnyardgrass Ea
Method: as §2, §3, §4

[8] = Amaranthus retroflexus, 960 h, applied alone, 2 g/a, 40th day, read-out: Herbicidal effects Redrood pigweed Ea
[9] = Amaranthus retroflexus, 960 h, applied alone, 4 g/a, 40th day, read-out: Herbicidal effects Redrood pigweed Ea
[10] = Amaranthus retroflexus, 960 h, applied alone, 8 g/a, 40th day, read-out: Herbicidal effects Redrood pigweed Ea
[11] = Sorghum halepense, 960 h, applied alone, 2 g/a, 40th day, read-out: Herbicidal effects Johnsongrass Ea
[12] = Sorghum halepense, 960 h, applied alone, 4 g/a, 40th day, read-out: Herbicidal effects Johnsongrass Ea
[13] = Sorghum halepense, 960 h, applied alone, 8 g/a, 40th day, read-out: Herbicidal effects Johnsongrass Ea
[14] = Amaranthus retroflexus, 960 h, read-out: Herbicidal effects Redrood pigweed Ea
[15] = Sorghum halepense, 960 h, read-out: Herbicidal effects Johnsongrass Ea
[16] = applied alone, 0.3 kg/ha, 30th day
[17] = read-out: Herbicidal effects (%) Johnsongrass Ea, applied alone, 0.5 kg/ha, foliar, 30th day
[18] = applied alone, 0.2 kg/ha, 30th day

## 2-methylthio-4-methylamino-6-isopropylamino-1,3,5-triazine [Ametryn]
[1]; applied alone, 2 g/a, 40th day
  Herbicidal effects Redrood pigweed Ea: 10%
[1]; applied alone, 4 g/a, 40th day
  Herbicidal effects Redrood pigweed Ea: 20%
[1]; applied alone, 8 g/a, 40th day
  Herbicidal effects Redrood pigweed Ea: 30%
[2]; applied alone, 2 g/a, 40th day
  Herbicidal effects Johnsongrass Ea: 0%
[2]; applied alone, 4 g/a, 40th day
  Herbicidal effects Johnsongrass Ea: 10%
[2]; applied alone, 8 g/a, 40th day
  Herbicidal effects Johnsongrass Ea: 20%

## CC(C)c1ccc(NC(=O)N(C)C)cc1 [Isoproturon, 3-(4-isopropylphenyl)-1,1-dimethylurea]
[1]; [8]
  pest or weed control at 200 g/ha: 10%
[1]; [9]
  pest or weed control at 400 g/ha: 20%
[1]; [10]
  pest or weed control at 800 g/ha: 40%
[2]; [11]
  pest or weed control at 200 g/ha: 0%
[2]; [12]
  pest or weed control at 400 g/ha: 10%
[2]; [13]
  pest or weed control at 800 g/ha: 20%

## CCCC(C)C(=O)Nc1ccc(C(C)C)c(Cl)c1 (stereo not shown) [MT-5950, N-(3-chloro-4-isopropylphenyl)-2-methylpentamide]
[1]; [8]
  pest or weed control at 200 g/ha: 30%
[1]; [9]
  pest or weed control at 400 g/ha: 70%
[1]; [10]
  pest or weed control at 800 g/ha: 85%
[2]; [11]
  pest or weed control at 200 g/ha: 10%
[2]; [12]
  pest or weed control at 400 g/ha: 10%
[2]; [13]
  pest or weed control at 800 g/ha: 20%

## CCc1cccc(CC)c1N(COC)C(=O)CCl [alachlor, N-methoxymethyl-2',6'-diethyl-2-chloroacetanilide, reference compound]
[3]
  pest or weed control at 1000 g/ha: 40%
[4]
  pest or weed control at 1000 g/ha: 30%

## CCNc1nc(Cl)nc(NC(C)C)n1 [atrazine, 2-chloro-4-ethylamino-6-isopropylamino-1,3,5-triazine]
[1]; [14]
  pest or weed control at 200 g/ha: 10%
  pest or weed control at 400 g/ha: 30%
  pest or weed control at 800 g/ha: 40%
[2]; [15]
  pest or weed control at 200 g/ha: 0%
  pest or weed control at 400 g/ha: 10%
  pest or weed control at 800 g/ha: 10%
[3]
  pest or weed control at 800 g/ha: 40%
[4]; read-out: Herbicidal effects (%) Johnsongrass Ea, applied alone, 0.8 kg/ha, foliar, 30th day
  pest or weed control at 800 g/ha: 10%

## CC(C)N1C(=O)c2ccccc2NS1(=O)=O [bentazon, 3-isopropyl-(1H)-2,1,3-benzothiadiazin-4-(3H)-one-2,2-dioxide]
[1]; [8]
  pest or weed control at 200 g/ha: 30%
[1]; [9]
  pest or weed control at 400 g/ha: 40%
[1]; [10]
  pest or weed control at 800 g/ha: 70%
[2]; [11]
  pest or weed control at 200 g/ha: 0%
[2]; [12]
  pest or weed control at 400 g/ha: 0%
[2]; [13]
  pest or weed control at 800 g/ha: 20%
[3]; applied alone, 0.5 kg/ha, 30th day
  pest or weed control at 500 g/ha: 40%
[4]; applied alone, 0.5 kg/ha, 30th day, read-out: Herbicidal effects (%) Johnsongrass Ea
  pest or weed control at 500 g/ha: 0%

## O=C(O)c1cc(Oc2ccc(C(F)(F)F)cc2Cl)ccc1[N+](=O)[O-] [blazer, reference compound]
[3]; [16]
  pest or weed control at 300 g/ha: 100%
[5]; [16]
  pest or weed control at 300 g/ha: 40%
[6]; [16]
  pest or weed control at 300 g/ha: 100%
[7]; [16]
  pest or weed control at 300 g/ha: 100%

## CCNc1nc(Cl)nc(NC(C)(C)C#N)n1 [cyanazine, 2-(2-chloro-4-ethylamino-1,3,5-triazine-6-ylamino)-2-methylpropionitrile]
[1]; [14]
  pest or weed control at 400 g/ha: 10%
  pest or weed control at 800 g/ha: 30%
  pest or weed control at 1600 g/ha: 50%
[2]; [15]
  pest or weed control at 400 g/ha: 0%
  pest or weed control at 800 g/ha: 10%
  pest or weed control at 1600 g/ha: 20%
[3]
  pest or weed control at 1000 g/ha: 40%
[4]
  pest or weed control at 1000 g/ha: 10%

## CN(C)C(=O)Nc1ccc(Cl)c(Cl)c1 [diuron, 3-(3,4-dichlorophenyl)-1,1-dimethylurea]
[1]; [14]
  pest or weed control at 200 g/ha: 30%
  pest or weed control at 400 g/ha: 70%
  pest or weed control at 800 g/ha: 85%
[2]; [15]
  pest or weed control at 200 g/ha: 0%
  pest or weed control at 400 g/ha: 10%
  pest or weed control at 800 g/ha: 20%
[3]
  pest or weed control at 300 g/ha: 40%
[4]
  pest or weed control at 300 g/ha: 10%

## CN(C)C(=O)Nc1cccc(C(F)(F)F)c1 [fluometuron, 1,1-dimethyl-3-(3-trifluoromethylphenyl)urea]
[1]; [14]
  pest or weed control at 200 g/ha: 20%
  pest or weed control at 400 g/ha: 30%
  pest or weed control at 800 g/ha: 50%
[2]; [15]
  pest or weed control at 200 g/ha: 0%
  pest or weed control at 400 g/ha: 10%
  pest or weed control at 800 g/ha: 20%
[3]
  pest or weed control at 500 g/ha: 30%
[4]; [17]
  pest or weed control at 500 g/ha: 30%

## CON(C)C(=O)Nc1ccc(Cl)c(Cl)c1 [linuron, 3-(3,4-dichlorophenyl)-1-methoxy-1-methylurea]
[1]; [14]
  pest or weed control at 200 g/ha: 40%
  pest or weed control at 400 g/ha: 70%
  pest or weed control at 800 g/ha: 85%
[2]; [15]
  pest or weed control at 200 g/ha: 0%
  pest or weed control at 400 g/ha: 10%
  pest or weed control at 800 g/ha: 20%
[4]
  pest or weed control at 300 g/ha: 10%
[6]
  pest or weed control at 300 g/ha: 30%

## CCc1cccc(C)c1N(C(=O)CCl)C(C)COC (stereo not shown) [metolachlor, 2-chloro-2'-ethyl-6'-methyl-N-(2-methoxy-1-methylethyl)acetanilide, reference compound]
[3]
  pest or weed control at 1000 g/ha: 40%
[5]
  pest or weed control at 1000 g/ha: 10%

## CSc1nnc(C(C)(C)C)c(=O)n1N [metribuzin, 4-amino-6-tert-butyl-3-methylthio-1,2,4-triazin-5(4H)-one, reference compound]
[3]; [18]
  pest or weed control at 200 g/ha: 30%
[5]; [18]
  pest or weed control at 200 g/ha: 10%

## O=C(O)c1ccccc1C(=O)Nc1cccc2ccccc12 [naptalam, 2-(1-naphthalenylaminocarbonyl)benzoic acid]
[1]; [14]
  pest or weed control at 400 g/ha: 0%
  pest or weed control at 800 g/ha: 10%
  pest or weed control at 1600 g/ha: 20%
[2]; [15]
  pest or weed control at 400 g/ha: 0%
  pest or weed control at 800 g/ha: 10%
  pest or weed control at 1600 g/ha: 20%
[3]
  pest or weed control at 1000 g/ha: 10%
[4]
  pest or weed control at 1000 g/ha: 10%

## CSc1nc(NC(C)C)nc(NC(C)C)n1 [prometryn, 2-methylthio-4,6-bis(isopropylamino)-1,3,5-triazine]
[1]; [14]
  pest or weed control at 200 g/ha: 10%
  pest or weed control at 400 g/ha: 20%
  pest or weed control at 800 g/ha: 40%
[2]; [15]
  pest or weed control at 200 g/ha: 0%
  pest or weed control at 400 g/ha: 10%
  pest or weed control at 800 g/ha: 20%
[4]; [17]
  pest or weed control at 500 g/ha: 20%
[6]
  pest or weed control at 500 g/ha: 30%

## CCC(=O)Nc1ccc(Cl)c(Cl)c1 [propanil, N-(3,4-dichlorophenyl)propanamide]
[1]; [14]
  pest or weed control at 2000 g/ha: 30%
  pest or weed control at 4000 g/ha: 70%
  pest or weed control at 8000 g/ha: 70%
[2]; [15]
  pest or weed control at 2000 g/ha: 20%
  pest or weed control at 4000 g/ha: 30%
  pest or weed control at 8000 g/ha: 50%
[4]; read-out: Herbicidal effects (%) Johnsongrass Ea, applied alone, 3 kg/ha, foliar, 30th day
  pest or weed control at 3000 g/ha: 10%
[7]
  pest or weed control at 3000 g/ha: 40%

## CCC/C(=N\OCC)C1=C(O)CC(CC(C)SCC)CC1=O (stereo not shown) [sethoxydim, reference compound]
[1]; [14]
  pest or weed control at 100 g/ha: 0%
  pest or weed control at 200 g/ha: 0%
[2]; [15]
  pest or weed control at 100 g/ha: 70%
  pest or weed control at 200 g/ha: 85%
[3]
  pest or weed control at 200 g/ha: 0%
[4]; read-out: Herbicidal effects (%) Johnsongrass Ea, applied alone, 0.2 kg/ha, foliar, 30th day
  pest or weed control at 200 g/ha: 95%
[5]
  pest or weed control at 200 g/ha: 100%
[6]
  pest or weed control at 200 g/ha: 0%
[7]
  pest or weed control at 200 g/ha: 0%

From US5053070A, “Pyrimidine derivatives, preparation processes thereof, herbicide containing the same, and herbicidal compositions containing the same along with other active ingredient” (Mitsui Toatsu Chemicals, Incorporated, priority 1988, dated 1991)
